Experimental findings from ChEMBL document CHEMBL1201862, “PubChem BioAssay data set” (2004) are described below.

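Compound exposure: 48 hours, 5 concentrations, 96-well plates. GI50: concentration for 50% inhibition of growth.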 Activity calls are given as the source filed them. No stated cut-off is given here; in the data, active = GI50 up to about 1.1 µM and inactive = higher.

Common to all, as to experiment: DTP human tumour cell line panel, 48 h
Test [1] has as its system SK-MEL-5.
In test [2] the test system is KM12.
The subject of test [3] is PC-3.
The test system of test [4] is BT-549.
The subject of test [5] is HCT-116.
Test [6] deals with OVCAR-5.
For test [7], the system named is SK-OV-3.
Test [8] has as its system SN12C.
The subject of test [9] is NCI-H460.
For test [10], the system named is SNB-19.
Test [11] concerns OVCAR-3.
Test [12] deals with Hs-578T.
The subject of test [13] is MDA-MB-435.
Test [14] relates to UACC-62.
The test system of test [15] is OVCAR-4.
For test [16], the system named is IGROV-1.
The test system of test [17] is EKVX.
The subject of test [18] is RXF 393.
Test [19] relates to HCC 2998.
The subject of test [20] is SR.

For orientation: GI50 means the concentration that inhibits growth by half. Turning to `CCCn1c(=O)c(N2CCN(c3ccccc3)CC2)nc2sc3ccccc3c21`, the GI50 was > 100 µM (inactive) in [1]; > 100 µM (inactive) in test [2]; > 100 µM (inactive) in test [3]; 97.3 µM (inactive) in test [4]; > 100 µM (inactive) in test [5]; > 100 µM (inactive) in test [6]. The GI50 in [7], in test [8], in [9], in test [10], in [11] and in [12] was > 100 µM (inactive) each time. For the same compound, the GI50 in test [13], in test [14], in test [15], in [16] and in test [17] was > 100 µM (inactive) in each case.

In the case of `CNC(=O)c1ccc(C(=O)NCCCCCN(O)C(=O)CCC(=O)NCCCCCN(O)C(=O)CCC(=O)NCCCCCN(O)C(C)=O)c(O)c1O`, the GI50 in test [1] is 33.7 µM (inactive); in test [2] it was 58.5 µM (inactive); in [3], 86.7 µM (inactive); in [4], 56.6 µM (inactive); in test [5], 32.9 µM (inactive); in test [6] it was > 100 µM (inactive). The GI50 in test [7] was 45.4 µM (inactive); in [8] it was 94.6 µM (inactive); in test [18], 32.3 µM (inactive); in test [9], 36.1 µM (inactive); in test [10] it was 62.7 µM (inactive); in test [11], 8.57 µM (inactive). In addition, the GI50 was > 100 µM (inactive) in test [12]; > 100 µM (inactive) in [13]; 36.1 µM (inactive) in test [14]; 1.07 µM (active) in [15]; 60.4 µM (inactive) in [16]; > 100 µM (inactive) in test [19].

As for `COC(=O)C/N=C1\NC(=S)N(Cc2ccc(OC)cc2)C12CCCC2`, the GI50 in test [2], in test [3], in test [4], in test [5], in test [6] and in test [7] was > 100 µM (inactive) throughout. Moreover, the GI50 in test [8], in test [18], in [9], in test [10], in [11] and in test [13] was > 100 µM (inactive) in each case. Moreover, the GI50 in test [14], in [15], in test [20], in test [19] and in [17] was > 100 µM (inactive) in each case.

As for `CC1C2=C(CCCC2=O)N(c2ccc(Cl)cc2)C2=C1C(=O)CCC2`, the GI50 in test [1] is 40.6 µM (inactive); in test [2], > 100 µM (inactive); in [3], 60 µM (inactive); in [4] it was 73.6 µM (inactive); in [6], > 100 µM (inactive); in test [7], > 100 µM (inactive). For the same compound, the GI50 in test [8] was 83 µM (inactive); in test [18], 21.6 µM (inactive); in test [9], 60.5 µM (inactive); in [10], > 100 µM (inactive); in test [11], 69.8 µM (inactive); in [12], 50.1 µM (inactive). The GI50 was 67.1 µM (inactive) in test [14]; 39.1 µM (inactive) in test [15]; > 100 µM (inactive) in test [16]; 39.2 µM (inactive) in [20]; > 100 µM (inactive) in test [19]; 57.7 µM (inactive) in test [17].

Take `Cc1ccc(C(=O)O)c(/C=C2\Cc3cc(C)cc(C)c3C2=O)c1`: the GI50 is 35.7 µM (inactive) in [1]; 65.2 µM (inactive) in [2]; 48.6 µM (inactive) in [3]; > 100 µM (inactive) in [4]; 53.7 µM (inactive) in [5]; 49.4 µM (inactive) in test [8]. Besides, the GI50 in [18] is 67.3 µM (inactive); in [9] it was 49.2 µM (inactive); in test [10], > 100 µM (inactive); in test [11], 36 µM (inactive); in [12], 93.8 µM (inactive); in test [14], 76 µM (inactive). The GI50 was > 100 µM (inactive) in test [16], 46 µM (inactive) in [20], 70.1 µM (inactive) in test [19] and 66.7 µM (inactive) in test [17].

As for `COc1c2cc([N+](=O)[O-])cc1CN(C(=O)C(F)(F)F)CCOCCN(C(=O)C(F)(F)F)C2`, the GI50 was > 100 µM (inactive) in [1]; > 100 µM (inactive) in [2]; > 100 µM (inactive) in [3]; 70.6 µM (inactive) in [4]; > 100 µM (inactive) in [5]; > 100 µM (inactive) in [6]. The GI50 in [7], in test [8], in [9], in test [10], in [11] and in test [12] was > 100 µM (inactive) each time. The GI50 in test [13], in [14], in [15], in test [16] and in [17] was > 100 µM (inactive) throughout.

As to `COc1ccccc1C1(c2c(OC)c(=O)c2=O)SCCCS1`, the GI50 was > 100 µM (inactive) in [1]; > 100 µM (inactive) in test [2]; > 100 µM (inactive) in [3]; 31.6 µM (inactive) in test [4]; > 100 µM (inactive) in test [5]; 34.4 µM (inactive) in test [6]. For the same compound, the GI50 was > 100 µM (inactive) in test [7]; 36.6 µM (inactive) in test [8]; 44.5 µM (inactive) in [18]; > 100 µM (inactive) in test [9]; 74 µM (inactive) in test [10]; 86.7 µM (inactive) in test [11]. Besides, the GI50 in [12] is 35 µM (inactive); in [13] it was > 100 µM (inactive); in [14], > 100 µM (inactive); in [15], > 100 µM (inactive); in test [16], 47.2 µM (inactive); in test [19], > 100 µM (inactive). Further, the GI50 in test [17] was 75.2 µM (inactive).

On to `Cc1ccc(S(=O)(=O)NC(=O)NC(C(=O)O)C(C)O)cc1` (stereo not drawn), for which the GI50 in test [1], in test [2], in [3], in test [4], in [5] and in test [6] was > 100 µM (inactive) throughout. For the same compound, the GI50 in [7], in [8], in [18], in [9], in test [10] and in test [12] was > 100 µM (inactive) throughout. Also, the GI50 in [14], in test [15], in test [16] and in [20] was > 100 µM (inactive) each time.

As for `O=[N+]([O-])c1cc(C(F)(F)F)ccc1S(=O)(=O)N[C@@H]1CCCC[C@H]1NS(=O)(=O)c1ccc(C(F)(F)F)cc1[N+](=O)[O-]`, the GI50 in [1] was 3.58 µM (inactive); in [2], 3.08 µM (inactive); in test [3], 3.11 µM (inactive); in test [4], 2.23 µM (inactive); in [5], 3.43 µM (inactive); in [6] it was 56.2 µM (inactive). Further, the GI50 in test [7] is 13.6 µM (inactive); in test [8], 3.45 µM (inactive); in test [18], 2.45 µM (inactive); in test [9], 3.57 µM (inactive); in test [10], 5.68 µM (inactive); in [11], 2.38 µM (inactive). The GI50 in [12] was 2.48 µM (inactive); in test [13] it was 2.15 µM (inactive); in test [14], 3.81 µM (inactive); in [15], 2.61 µM (inactive); in test [16], 2.31 µM (inactive); in test [19], 4.28 µM (inactive). Moreover, the GI50 in [17] was 6.5 µM (inactive).

As for `COc1ccc(N[C@H]([C@@H](c2ccccc2)[S+]([O-])c2ccc(C)cc2)C(F)(F)F)cc1` (stereo partly drawn), the GI50 is 35.8 µM (inactive) in [1]; 33.4 µM (inactive) in test [2]; 21.1 µM (inactive) in test [3]; 38.6 µM (inactive) in test [4]; 29.4 µM (inactive) in test [5]; 40.6 µM (inactive) in [6]. For the same compound, the GI50 was > 100 µM (inactive) in [7]; 71.8 µM (inactive) in [8]; 53.5 µM (inactive) in test [18]; 50.1 µM (inactive) in [9]; 33.1 µM (inactive) in [10]; > 100 µM (inactive) in [11]. Besides, the GI50 was 41.1 µM (inactive) in test [13]; 29.1 µM (inactive) in [14]; 26 µM (inactive) in test [15]; 48.8 µM (inactive) in [16]; > 100 µM (inactive) in test [20]; > 100 µM (inactive) in test [19]. The GI50 in test [17] was 44 µM (inactive).

As for `O=C1C2=Cc3ccccc3OC2(O)Oc2cc(O)cc(O)c21` (stereo not drawn), the GI50 in test [1], in test [2], in test [3], in test [4], in test [5] and in test [6] was > 100 µM (inactive) in each case. Moreover, the GI50 in test [7] was > 100 µM (inactive); in test [8], > 100 µM (inactive); in [18], > 100 µM (inactive); in [9], 41.5 µM (inactive); in [11], > 10 µM (inactive); in test [13], > 100 µM (inactive). Also, the GI50 is 71.8 µM (inactive) in test [14]; 92.3 µM (inactive) in test [15]; > 100 µM (inactive) in test [16]; > 100 µM (inactive) in test [19]; > 100 µM (inactive) in test [17].
